From ChEMBL document CHEMBL1201862, “PubChem BioAssay data set” (2004)
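Compound exposure: 48 hours, 5 concentrations, 96-well plates. The concentration for 50% growth inhibition is given as GI50.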 Calls of active or inactive are those of the source. No stated cut-off is given here; in the data, active = GI50 up to about 1.1 µM and inactive = higher.

Tests used:
Assay in all cases: NCI-60 cell line screen, 48 h
[1] = test system: M19-MEL
[2] = test system: HCT-116
[3] = test system: NCI-H522
[4] = test system: A498
[5] = test system: OVCAR-8
[6] = test system: SR
[7] = test system: OVCAR-5
[8] = test system: UACC-62
[9] = test system: OVCAR-4
[10] = test system: HT-29
[11] = test system: UACC-257
[12] = test system: SK-OV-3
[13] = test system: OVCAR-3
[14] = test system: M14
[15] = test system: COLO 205
[16] = test system: CCRF-CEM
[17] = test system: NCI-H23

Measured: GI50

CCOP(=O)(OCC)OC(C#N)c1ccc(-c2ccccc2)cc1 (stereo unspecified)
inactive: [1] 21.9 µM | [2] 15.2 µM | [3] 14.9 µM | [4] 24.2 µM | [5] 19.5 µM | [6] 30 µM | [7] 54.1 µM | [8] 13.9 µM | [9] 21.1 µM | [10] 17.9 µM | [11] 20.8 µM | [12] 28.4 µM | [13] 19.1 µM | [14] 18.4 µM | [15] 18.2 µM | [16] 22.4 µM | [17] 27 µM

c1ccc(SC2(Sc3ccccc3)CCCC2)cc1
inactive: [1] > 100 µM | [2] > 100 µM | [3] > 100 µM | [4] > 100 µM | [5] > 100 µM | [6] > 100 µM | [8] > 100 µM | [9] > 100 µM | [11] > 100 µM | [12] > 100 µM | [13] > 100 µM | [14] > 100 µM | [15] > 100 µM | [16] > 100 µM | [17] > 100 µM

CC(C)(C)C(=O)C1CC(=O)c2ccccc2C1=O (stereo unspecified)
inactive: [1] 32.9 µM | [2] 21.4 µM | [3] 23.6 µM | [4] 42.3 µM | [5] 37 µM | [7] 37.1 µM | [8] 25.8 µM | [9] 33 µM | [11] 18.2 µM | [12] 27.1 µM | [13] 24.3 µM | [14] 39.3 µM | [15] 31.8 µM | [16] 33.4 µM | [17] 20.7 µM

O=c1cccccc1NCCCCCCCCCNc1cccccc1=O
inactive: [1] 15.2 µM | [2] 2.74 µM | [3] 13.9 µM | [5] 13.6 µM | [6] 8.43 µM | [7] 17.5 µM | [8] 12.5 µM | [9] 1.78 µM | [10] 15.7 µM | [11] 2.12 µM | [12] 33.1 µM | [13] 9.06 µM | [14] 10.9 µM | [15] 3.23 µM | [16] 5.94 µM | [17] 5.26 µM

N#CC(C(=O)C(N)=O)c1ccccc1Cl (stereo unspecified)
inactive: [1] > 100 µM | [2] > 100 µM | [4] > 100 µM | [5] > 100 µM | [7] > 100 µM | [8] > 100 µM | [9] > 100 µM | [10] > 100 µM | [11] > 100 µM | [12] > 100 µM | [13] > 100 µM | [14] > 100 µM | [15] > 100 µM | [16] > 100 µM | [17] > 100 µM

COc1cc2ccc3c4ccccc4cnc3c2cc1OC
inactive: [1] > 100 µM | [2] > 100 µM | [3] > 100 µM | [5] > 100 µM | [6] > 100 µM | [7] > 100 µM | [8] > 100 µM | [9] > 100 µM | [10] > 100 µM | [11] > 100 µM | [12] > 100 µM | [13] > 100 µM | [14] > 100 µM | [15] > 100 µM | [16] > 100 µM | [17] > 100 µM

CC(=O)OC1CC2(c3ccccc3)C(=O)c3ccccc3N2O1 (stereo unspecified)
inactive: [1] > 100 µM | [2] > 100 µM | [3] > 100 µM | [4] > 100 µM | [5] > 100 µM | [6] > 100 µM | [8] > 100 µM | [9] > 100 µM | [10] > 100 µM | [11] > 100 µM | [12] > 100 µM | [14] > 100 µM | [15] > 100 µM | [16] > 100 µM | [17] > 100 µM

CNS(=O)(=O)NNS(=O)(=O)c1ccc(OC)cc1
inactive: [1] > 100 µM | [2] > 100 µM | [3] > 100 µM | [4] > 100 µM | [5] > 100 µM | [6] > 100 µM | [8] > 100 µM | [9] > 100 µM | [10] > 100 µM | [11] > 100 µM | [12] > 100 µM | [13] > 100 µM | [14] > 100 µM | [15] > 100 µM | [16] > 100 µM | [17] > 100 µM

CC1=C(C(=O)O)N2C(=O)[C@@H](NC(=O)C(c3ccccc3)N3CSC(=S)N(C(C)C)C3)C2SC1 (stereo partly specified)
inactive: [1] > 100 µM | [2] > 100 µM | [3] 30.4 µM | [4] > 100 µM | [5] > 100 µM | [7] > 100 µM | [8] > 100 µM | [9] > 100 µM | [10] > 100 µM | [11] > 100 µM | [12] > 100 µM | [13] > 100 µM | [14] > 100 µM | [15] 86.3 µM | [16] > 100 µM | [17] > 100 µM
